“And” between values parts separate entries of the source, which are not always exact repeats. Equal values may be shown once. A value given as a limit tells only on which side of the number the result lay.

The experiment concerns the target T1, TNKS2 (Homo sapiens, UniProt Q9H2K2).
T1 sequence (Q9H2K2 1-1166): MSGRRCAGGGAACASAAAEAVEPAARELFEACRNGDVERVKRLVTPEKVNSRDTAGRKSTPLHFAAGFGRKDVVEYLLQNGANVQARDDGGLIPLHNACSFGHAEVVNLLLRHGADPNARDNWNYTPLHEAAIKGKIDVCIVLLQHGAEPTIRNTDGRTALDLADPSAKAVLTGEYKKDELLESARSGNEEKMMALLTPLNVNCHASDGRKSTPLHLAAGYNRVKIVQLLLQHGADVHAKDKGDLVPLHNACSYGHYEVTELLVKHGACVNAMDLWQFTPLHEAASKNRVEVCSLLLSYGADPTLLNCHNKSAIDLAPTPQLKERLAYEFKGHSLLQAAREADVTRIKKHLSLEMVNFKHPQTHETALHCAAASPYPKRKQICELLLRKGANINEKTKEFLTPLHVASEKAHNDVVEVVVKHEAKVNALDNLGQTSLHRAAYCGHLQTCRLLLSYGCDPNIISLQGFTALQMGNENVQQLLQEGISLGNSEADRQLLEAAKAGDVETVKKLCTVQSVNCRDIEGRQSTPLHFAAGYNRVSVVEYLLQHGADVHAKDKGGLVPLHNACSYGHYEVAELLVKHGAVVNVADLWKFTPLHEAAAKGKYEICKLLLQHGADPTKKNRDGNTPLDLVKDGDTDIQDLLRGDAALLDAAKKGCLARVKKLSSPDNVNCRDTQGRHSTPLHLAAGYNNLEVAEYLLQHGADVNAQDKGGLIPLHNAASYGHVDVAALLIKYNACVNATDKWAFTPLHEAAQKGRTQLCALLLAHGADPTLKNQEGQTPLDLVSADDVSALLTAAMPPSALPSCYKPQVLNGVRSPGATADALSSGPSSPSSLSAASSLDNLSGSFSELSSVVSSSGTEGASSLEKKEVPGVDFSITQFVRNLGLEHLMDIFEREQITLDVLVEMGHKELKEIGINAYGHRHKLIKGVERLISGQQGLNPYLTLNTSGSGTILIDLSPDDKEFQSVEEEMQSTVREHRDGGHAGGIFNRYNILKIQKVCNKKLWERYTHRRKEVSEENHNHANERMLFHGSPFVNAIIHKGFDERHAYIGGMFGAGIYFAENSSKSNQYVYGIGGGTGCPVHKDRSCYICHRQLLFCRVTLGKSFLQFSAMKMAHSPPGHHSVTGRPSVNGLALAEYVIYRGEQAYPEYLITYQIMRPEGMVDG
Briefly: Modified TNKS2 Assay 3 (BPS kit #80578, biotin-NAD+, 96 well). The experiment is classed as biochemical. The settings on record: human TNKS2, BPS kit #80578, 96 well. An outline of the steps:
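Commercial kit assay measuring TNKS2-catalysed incorporation of biotin-labelled NAD+ into a protein substrate, detected by streptavidin-HRP chemiluminescence. Run per manufacturer's protocol; IC50 is the concentration halving the normalised signal.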
By IC50 is commonly meant the concentration needed to halve the response being measured. High values mean weaker potency, low ones greater potency. On to `CC(C)c1nc(C(=O)Nc2ccc(NC(=O)c3ccc(F)cc3Cl)cc2)c(C(=O)NCCN2CCCCC2)[nH]1` [Example 108, N^4-{4-[(2-chloro-4-fluorobenzoyl)amino]phenyl}-2-isopropyl-N^5-[2-(piperidin-1-yl)ethyl]-1H-imidazole-4,5-dicarboxamide], for which the IC50 is greater than 500 nM.
Under `CC(CN1CCOCC1)NC(=O)c1[nH]cnc1C(=O)Nc1ccc(NC(=O)c2ccc(F)cc2Cl)cc1` (centres unmarked) [Example 268, N^4-{4-[(2-chloro-4-fluorobenzoyl)amino]phenyl}-N^5-[1-(morpholin-4-yl)propan-2-yl]-1H-imidazole-4,5-dicarboxamide] stands 3 nM; under `CC(C)NCCNC(=O)c1[nH]cnc1C(=O)Nc1ccc(NC(=O)c2ccc(F)cc2Cl)cc1` [Example 288, N^4-{4-[(2-chloro-4-fluorobenzoyl)amino]phenyl}-N^5-[2-(isopropylamino)ethyl]-1H-imidazole-4,5-dicarboxamide], 3 nM; under `CC1CCN(CCCNC(=O)c2nc[nH]c2C(=O)Nc2ccc(NC(=O)c3ccc(F)cc3Cl)cc2)CC1` [Example 400, N^5-{4-[(2-chloro-4-fluorobenzoyl)amino]phenyl}-N^4-[3-(4-methylpiperidin-1-yl)propyl]-1H-imidazole-4,5-dicarboxamide], 20 nM.
Under `CC1CCCN(CCNC(=O)c2[nH]cnc2C(=O)Nc2ccc(NC(=O)c3ccccc3Cl)cc2)C1` (centres unmarked) [Example 210, N^4-{4-[(2-chlorobenzoyl)amino]phenyl}-N^5-[2-(3-methylpiperidin-1-yl)ethyl]-1H-imidazole-4,5-dicarboxamide] stands 3 nM; under `O=C(Nc1ccc(NC(=O)c2nc[nH]c2C(=O)NCC2CCOCC2)cc1)c1ccc(F)cc1Cl` [Example 233, N^4-{4-[(2-chloro-4-fluorobenzoyl)amino]phenyl}-N^5-(tetrahydro-2H-pyran-4-ylmethyl)-1H-imidazole-4,5-dicarboxamide], 160 nM.
With `O=C(Nc1ccc(NC(=O)c2nc[nH]c2C(=O)NCC2CC2)cc1)c1ccc(F)cc1Cl` [Example 128, N^4-{4-[(2-chloro-4-fluorobenzoyl)amino]phenyl}-N^5-(cyclopropylmethyl)-1H-imidazole-4,5-dicarboxamide] the figure was greater than 500 nM; with `CNC(=O)c1nc[nH]c1C(=O)Nc1ccc(NC(=O)c2ccc(OC)cc2Cl)cc1` [Example 246, N^5-{4-[(2-chloro-4-methoxybenzoyl)amino]phenyl}-N^4-methyl-1H-imidazole-4,5-dicarboxamide], 60 nM; with `CN(C)CCNC(=O)c1nc[nH]c1C(=O)Nc1ccc(NC(=O)c2ccc(S(C)(=O)=O)cc2Cl)cc1` [Example 54, N^5-(4-{[2-chloro-4-(methylsulfonyl)benzoyl]amino}phenyl)-N^4-[2-(dimethylamino)ethyl]-1H-imidazole-4,5-dicarboxamide], 6 nM.
`CCc1nc(C(=O)Nc2ccc(NC(=O)c3ccc(F)cc3Cl)cc2)c(C(=O)NCCN(C)C)[nH]1` [Example 69, N^4-{4-[(2-chloro-4-fluorobenzoyl)amino]phenyl}-N^5-[2-(dimethylamino)ethyl]-2-ethyl-1H-imidazole-4,5-dicarboxamide] registered an IC50 of 190 nM.
As for `CC(CN1CCOCC1)NC(=O)c1[nH]cnc1C(=O)Nc1ccc(NC(=O)c2ccc(F)cc2Cl)cc1` (single isomer, unassigned; enantiomer 1) [Example 269, N^4-{4-[(2-chloro-4-fluorobenzoyl)amino]phenyl}-N^5-[1-(morpholin-4-yl)propan-2-yl]-1H-imidazole-4,5-dicarboxamide (enantiomer 1)], the IC50 amounted to 130 nM.
With `CNC(=O)c1nc[nH]c1C(=O)Nc1ccc(NC(=O)c2c(C)cc(C)cc2C)cc1` [Example 35, N^5-{4-[(mesitylcarbonyl)amino]phenyl}-N^4-methyl-1H-imidazole-4,5-dicarboxamide], the concentration for half-maximal inhibition (IC50) was greater than 500 nM.
Under `O=C(Nc1ccc(NC(=O)c2nc[nH]c2C(=O)NCCN2CCCC(F)(F)C2)cc1)c1ccc(F)cc1Cl` [Example 225, N^4-{4-[(2-chloro-4-fluorobenzoyl)amino]phenyl}-N^5-[2-(3,3-difluoropiperidin-1-yl)ethyl]-1H-imidazole-4,5-dicarboxamide] stands 50 nM.
Under `O=C(Nc1ccc(NC(=O)c2nc[nH]c2C(=O)NCCN2CCCC2)cc1)c1ccc(F)cc1Cl` [Example 228, N^4-{4-[(2-chloro-4-fluorobenzoyl)amino]phenyl}-N^5-[2-(pyrrolidin-1-yl)ethyl]-1H-imidazole-4,5-dicarboxamide] stands 4 nM and < 0.5 nM.
Under `O=C(Nc1ccc(NC(=O)c2[nH]cnc2C(=O)N2CC(F)C2)cc1)c1ccc(F)cc1Cl` [Example 41, N-{4-[(2-chloro-4-fluorobenzoyl)amino]phenyl}-4-[(3-fluoroazetidin-1-yl)carbonyl]-1H-imidazole-5-carboxamide] stands 70 nM; under `CC(C)(N)CNC(=O)c1[nH]cnc1C(=O)Nc1ccc(NC(=O)c2ccc(F)cc2Cl)cc1` [Example 280, N^5-(2-amino-2-methylpropyl)-N^4-{4-[(2-chloro-4-fluorobenzoyl)amino]phenyl}-1H-imidazole-4,5-dicarboxamide], 30 nM.
`CC(C)(O)CNC(=O)c1[nH]cnc1C(=O)Nc1ccc(NC(=O)c2ccc(F)cc2Cl)cc1` [Example 223, N^4-{4-[(2-chloro-4-fluorobenzoyl)amino]phenyl}-N^5-(2-hydroxy-2-methylpropyl)-1H-imidazole-4,5-dicarboxamide] came in with an IC50 of 340 nM.
With `O=C(Nc1ccc(NC(=O)c2nc[nH]c2C(=O)NCCCN2CCCC2)cc1)c1ccc(F)cc1Cl` [Example 274, N^4-{4-[(2-chloro-4-fluorobenzoyl)amino]phenyl}-N^5-[3-(pyrrolidin-1-yl)propyl]-1H-imidazole-4,5-dicarboxamide] the figure was 9 nM.
The compound `O=C(Nc1ccc(NC(=O)c2ocnc2C(=O)NCCN2CCCC(F)C2)cc1)c1ccc(F)cc1Cl` (centres unmarked) [Example 220, N^5-{4-[(2-chloro-4-fluorobenzoyl)amino]phenyl}-N^4-[2-(3-fluoropiperidin-1-yl)ethyl]-1,3-oxazole-4,5-dicarboxamide] returned an IC50 of 100 nM.
Under `CNC(=O)c1nc[nH]c1C(=O)Nc1ccc(NC(=O)c2cccc(C)c2Cl)cc1` [Example 346, N^5-{4-[(2-chloro-3-methylbenzoyl)amino]phenyl}-N^4-methyl-1H-imidazole-4,5-dicarboxamide] stands greater than 500 nM; under `CC(CN1CCOCC1)NC(=O)c1[nH]cnc1C(=O)Nc1ccc(NC(=O)c2ccc(F)cc2)cc1` (single isomer, unassigned; enantiomer 1) [Example 295, N^4-{4-[(4-fluorobenzoyl)amino]phenyl}-N^5-[1-(morpholin-4-yl)propan-2-yl]-1H-imidazole-4,5-dicarboxamide (enantiomer 1)], 190 nM.
Under `O=C(Nc1ccc(NC(=O)c2[nH]cnc2C(=O)NCCN2CCCCC2)cc1F)c1ccccc1Cl` [Example 82, N^5-{4-[(2-chlorobenzoyl)amino]-3-fluorophenyl}-N^4-[2-(piperidin-1-yl)ethyl]-1H-imidazole-4,5-dicarboxamide] stands less than 0.5 nM; under `NC(=O)c1nc[nH]c1C(=O)Nc1ccc(NC(=O)c2ccccc2Cl)cc1` [Example 120, N^5-{4-[(2-chlorobenzoyl)amino]phenyl}-1H-imidazole-4,5-dicarboxamide], 140 nM; under `CN1CCN(CCCNC(=O)c2nc[nH]c2C(=O)Nc2ccc(NC(=O)c3ccc(F)cc3Cl)cc2)CC1` [Example 392, N^5-{4-[(2-chloro-4-fluorobenzoyl)amino]phenyl}-N^4-[3-(4-methylpiperazin-1-yl)propyl]-1H-imidazole-4,5-dicarboxamide], 7 nM.
With `O=C(Nc1ccc(NC(=O)c2nc[nH]c2C(=O)N2CCC2)cc1)c1ccc(F)cc1Cl` [Example 142, 5-(azetidin-1-ylcarbonyl)-N-{4-[(2-chloro-4-fluorobenzoyl)amino]phenyl}-1H-imidazole-4-carboxamide] the figure was 60 nM; with `CN1CCC(CNC(=O)c2nc[nH]c2C(=O)Nc2ccc(NC(=O)c3ccc(F)cc3Cl)cc2)C1` (centres unmarked) [Example 407, N^5-{4-[(2-chloro-4-fluorobenzoyl)amino]phenyl}-N^4-[(1-methylpyrrolidin-3-yl)methyl]-1H-imidazole-4,5-dicarboxamide], 8 nM.

The values above are taken from US9884063B2, “Amido-substituted azole compounds” (Bayer Pharma Aktiengesellschaft, priority 2014, dated 2018).
